# In article PMC6001238, “Iterative Chemical Engineering of Vancomycin Leads to Novel Vancomycin Analogs With a High in Vitro Therapeutic Index” (Frontiers in Microbiology, 2018):
# Read-outs that look alike come from different tables or passages of the source.
# Assays:
# 33 clinical VRE isolates = test: MIC against a set of 33 clinical VRE isolates (range, MIC50, TI); type: cell-based, Enterococcus faecalis
# Method: (§1) The minimum inhibitory concentration (MIC) was determined using the broth microdilution method according to the antimicrobial susceptibility testing standards of the clinical and laboratory standards institute ([Clinical and Laboratory Standards Institute [CLSI], 2012]). Ultrapure water and non-inoculated broth were used as controls. In one case, a final concentration of 10 μM vancomycin was included with the vancomycin analog or control antibiotic.
# S. aureus VRSA = test: MIC, broth microdilution, vancomycin-resistant S. aureus (VRSA); type: cell-based, Staphylococcus aureus
# How it was run: (§2)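 MIC values come from broth microdilution run to CLSI susceptibility-testing standards. Ultrapure water and uninoculated broth served as controls. In one series, vancomycin at a final 10 μM was co-dosed with the analogue or comparator antibiotic.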
# [1] = tested on: S. aureus VSSA (ATCC 6538); test: MIC, broth microdilution, vancomycin-sensitive S. aureus (VSSA/MSSA, ATCC 6538); type: cell-based, Staphylococcus aureus
# How it was run: as §2
# VE 149 (VanB) = test: MIC, VanB-type VRE strain VE 149; type: cell-based, Enterococcus; details: Enterococcus; VE 149, VanB; read-out: MIC
# Method: as §1
# MRSA [2] = test: Time-kill curves, MRSA at 4x MIC; type: cell-based, Staphylococcus aureus; details: 1-24 h
# Method: Time-kill curves were determined based on the CLSI guidelines ([Clinical and Laboratory Standards Institute [CLSI], 1999]). Single colonies grown overnight at 37°C were resuspended in Ca^2+-adjusted (0.05 mg/mL) Mueller Hinton broth up to an optical density (625 nm) of 0.08–00.10 (corresponding to the 0.5 McFarland standard), followed by a 10-fold dilution in the same broth. Subsequently, 0.2 mL inoculum was added to 1.7 mL Ca^2+-adjusted (0.05 mg/mL) Mueller Hinton broth, followed by addition of the antibacterial compound (0.1 mL). The final concentration of the antibacterial compound corresponded to the 4x MIC value for that compound. For the antibiotic-free control, the compound was replaced by an equal volume of ultrapure water. The final inoculum concentration was approximately 10^6 CFU/mL. The cultures were continuously shaken at 37°C. After 1, 2, 4, 6, 8, and 24 h, a 0.1 mL aliquot was removed, serially diluted in cold 0.9% w/v NaCl and plated on BHI (VRE) and LB (MRSA) agar plates. Plates were incubated overnight at 37°C and colonies were counted.
# E. faecalis VSE 1 = test: MIC, broth microdilution, vancomycin-sensitive E. faecalis (VSE 1); type: cell-based, Enterococcus faecalis
# How it was run: as §2
# VE 150 (VanB) = test: MIC, VanB-type VRE strain VE 150; type: cell-based, Enterococcus; details: Enterococcus; VE 150, VanB; read-out: MIC
# Method: as §1
# VE 148 (VanB) = test: MIC, VanB-type VRE strain VE 148; type: cell-based, Enterococcus; details: Enterococcus; VE 148, VanB; read-out: MIC
# Method: as §1
# MRSA [3] = test: Minimum bactericidal concentration against MRSA; type: cell-based, Staphylococcus aureus
# Method: Plates were incubated overnight at 37°C and colony growth was inspected.
# VE 82 (VanC1) = test: MIC, VanC1-type VRE strain VE 82; type: cell-based, Enterococcus gallinarum; details: Enterococcus gallinarum; VE 82, VanC1; read-out: MIC
# Method: as §1
# [4] = tested on: Murine leukemia (L1210) cells; test: Cytostatic activity, L1210 cell proliferation; type: cell-based; details: Mus musculus, L1210, 48 h; mean ± SD of three experiments; highest concentration tested 250 µM; 2 days; read-out: Toxicity (IC50) L1210
# How it was run: (§3)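 Coulter counter cell counts after 37°C culture with compound; IC50 = concentration giving 50% growth inhibition vs negative control. Incubation: L1210 2 d, CEM 3 d, HeLa 4 d. Suspension density before mixing with an equal volume of dilution: 300,000–500,000 cells/mL.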
# E. faecalis VRE 29 = test: MIC, broth microdilution, vancomycin-resistant E. faecalis VRE 29 (VanA); type: cell-based, Enterococcus faecalis
# How it was run: as §2
# [5] = tested on: human cervix carcinoma (HeLa) cells; test: Cytostatic activity, HeLa cell proliferation; type: cell-based; details: Homo sapiens, HeLa, 96 h; mean ± SD of three experiments; highest concentration tested 250 µM; 4 days; read-out: Toxicity (IC50) HeLa
# How it was run: as §3
# [6] = tested on: L1210, CEM and HeLa cell lines; test: Cytostatic activity, average or summary over L1210, CEM and HeLa; type: cell-based
# How it was run: as §3
# E. faecalis VRE 53 = test: MIC, broth microdilution, vancomycin-resistant E. faecalis VRE 53 (VanA); type: cell-based, Enterococcus faecalis
# How it was run: as §2
# S. aureus VISA/HIP5827 = test: MIC, broth microdilution, vancomycin-intermediate S. aureus VISA HIP5827; type: cell-based, Staphylococcus aureus
# How it was run: as §2
# MRSA KS89 = test: MIC, broth microdilution, MRSA KS89; type: cell-based, Staphylococcus aureus
# How it was run: as §2
# VE 152 (VanB) = test: MIC, VanB-type VRE strain VE 152; type: cell-based, Enterococcus; details: Enterococcus; VE 152, VanB; read-out: MIC
# Method: as §1
# [7] = tested on: 24 clinical MRSA isolates; test: MIC against a set of 24 clinical MRSA isolates (range, MIC50, TI); type: cell-based, Staphylococcus aureus
# Method: as §1
# MRSA KS1 = test: MIC, broth microdilution, MRSA KS1; type: cell-based, Staphylococcus aureus
# How it was run: as §2
# E. faecalis VRE 6 = test: MIC, broth microdilution, vancomycin-resistant E. faecalis VRE 6 (VanA); type: cell-based, Enterococcus faecalis
# How it was run: as §2
# MRSA KS2 = test: MIC, broth microdilution, MRSA KS2; type: cell-based, Staphylococcus aureus
# How it was run: as §2
# MRSA KS6 = test: MIC, broth microdilution, MRSA KS6; type: cell-based, Staphylococcus aureus
# How it was run: as §2
# VE 157 (VanB) = test: MIC, VanB-type VRE strain VE 157; type: cell-based, Enterococcus; details: Enterococcus; VE 157, VanB; read-out: MIC
# Method: as §1
# [8] = tested on: human T-lymphocyte (CEM) cells; test: Cytostatic activity, CEM cell proliferation; type: cell-based; details: Homo sapiens, CCRF-CEM, 72 h; mean ± SD of three experiments; highest concentration tested 250 µM; 3 days; read-out: Toxicity (IC50) CEM
# How it was run: as §3
# E. faecalis VRE 37 = test: MIC, broth microdilution, vancomycin-resistant E. faecalis VRE 37 (VanA); type: cell-based, Enterococcus faecalis
# How it was run: as §2
smiles,measurement,setting,value
"CC(=O)NC[C@H]1CN(c2ccc(N3CCOCC3)c(F)c2)C(=O)O1 [Linezolid, reference compound]",MIC Range,33 clinical VRE isolates; 33 clinical VRE isolates,3.13 to 50 µM
same,MIC50,"33 clinical VRE isolates; Enterococcus, median MIC, 33 clinical VRE isolates, read-out: MIC50",6.25 µM
same,TI (IC50/MIC50),"33 clinical VRE isolates; in vitro therapeutic index, VRE",33
same,MIC,S. aureus VRSA; Staphylococcus aureus VRSA,6.25 µM
same,MIC-fold improvement vs. vancomycin,"S. aureus VRSA; VRSA, ratio of MIC of vancomycin and MIC of analogue",16
same,MIC,"[1]; ATCC6538, Staphylococcus aureus VSSA, read-out: MIC",> 3.13 µM
same,MIC-fold improvement vs. vancomycin,"[1]; VSSA, ratio of MIC of vancomycin and MIC of analogue",<0.2
same,MIC,VE 149 (VanB),12.5 µM
same,time-kill curve character,MRSA [2],typical bacteriostatic time-kill curve
same,MIC,"E. faecalis VSE 1; VSE1, Enterococcus faecalis VSE 1 (vancomycin-sensitive), read-out: MIC",> 3.13 µM
same,MIC-fold improvement vs. vancomycin,"E. faecalis VSE 1; VSE 1, ratio of MIC of vancomycin and MIC of analogue",<0.5
same,MIC,VE 150 (VanB),12.5 µM
same,MIC,VE 148 (VanB),12.5 µM
same,MBC relative to MIC,MRSA [3],more than four times higher than the corresponding MIC
same,MIC,VE 82 (VanC1),12.5 µM
same,IC50,[4],157 ± 7 µM
same,MIC,"E. faecalis VRE 29; Enterococcus faecalis, VRE",6.25 µM
same,MIC-fold improvement vs. vancomycin,"E. faecalis VRE 29; VRE 29, ratio of MIC of vancomycin and MIC of analogue",64
same,IC50,[5],216 ± 48 µM
same,IC50,"[6]; average IC50 used for TI in Table S5, >250 entered as 250, read-out: IC50",208 µM
same,IC50,"[6]; average of L1210, CEM and HeLa, read-out: Toxicity (IC50) Average",208 µM
same,MIC,"E. faecalis VRE 53; Enterococcus faecalis, VRE",6.25 µM
same,MIC-fold improvement vs. vancomycin,"E. faecalis VRE 53; VRE 53, ratio of MIC of vancomycin and MIC of analogue",64
same,MIC,"S. aureus VISA/HIP5827; Staphylococcus aureus, VISA",3.13 µM
same,MIC-fold improvement vs. vancomycin,"S. aureus VISA/HIP5827; VISA/HIP5827, ratio of MIC of vancomycin and MIC of analogue",2
same,MIC-fold improvement vs. vancomycin,"MRSA KS89; MRSA KS8 (head; KS89 in title), ratio of MIC of vancomycin and MIC of analogue",0.1
same,MIC,"MRSA KS89; Staphylococcus aureus, MRSA",6.25 µM
same,MIC,VE 152 (VanB),12.5 µM
same,MIC Range,[7]; 24 clinical MRSA isolates,6.25 to 25 µM
same,MIC50,"[7]; Staphylococcus aureus, median MIC, 24 clinical MRSA isolates, read-out: MIC50",25 µM
same,TI (IC50/MIC50),"[7]; in vitro therapeutic index, MRSA",8
same,MIC-fold improvement vs. vancomycin,"MRSA KS1; MRSA KS1, ratio of MIC of vancomycin and MIC of analogue",0.05
same,MIC,"MRSA KS1; Staphylococcus aureus MRSA KS1, read-out: MIC",12.5 µM
same,MIC,"E. faecalis VRE 6; Enterococcus faecalis VRE 6 (vancomycin-resistant), read-out: MIC",12.5 µM
same,MIC-fold improvement vs. vancomycin,"E. faecalis VRE 6; VRE 6, ratio of MIC of vancomycin and MIC of analogue",16
same,MIC-fold improvement vs. vancomycin,"MRSA KS2; MRSA KS2, ratio of MIC of vancomycin and MIC of analogue",0.1
same,MIC,"MRSA KS2; Staphylococcus aureus, MRSA",6.25 µM
same,MIC-fold improvement vs. vancomycin,"MRSA KS6; MRSA KS6, ratio of MIC of vancomycin and MIC of analogue",0.1
same,MIC,"MRSA KS6; Staphylococcus aureus, MRSA",6.25 µM
same,MIC,VE 157 (VanB),12.5 µM
same,IC50,[8],> 250 µM
same,MIC,"E. faecalis VRE 37; Enterococcus faecalis, VRE",6.25 µM
same,MIC-fold improvement vs. vancomycin,"E. faecalis VRE 37; VRE 37, ratio of MIC of vancomycin and MIC of analogue",64
